Laboratory results as given in patent US8685977B2, “Chemical compounds” (Pfizer Limited, priority 2010, dated 2014).

Each molecule was assayed against T1, Nav1.7 (or SCN9A) channel (Homo sapiens, UniProt Q15858) (assay: Nav1.7 PatchXpress 7000 automated electrophysiology assay (HEK cells stably expressing hSCN9A)). Settings: voltage-clamped at V1/2 of inactivation, read-out: Nav1.7 EIC50.
T1 construct: expressed in transfected cells
T1 sequence (Q15858 whole entry): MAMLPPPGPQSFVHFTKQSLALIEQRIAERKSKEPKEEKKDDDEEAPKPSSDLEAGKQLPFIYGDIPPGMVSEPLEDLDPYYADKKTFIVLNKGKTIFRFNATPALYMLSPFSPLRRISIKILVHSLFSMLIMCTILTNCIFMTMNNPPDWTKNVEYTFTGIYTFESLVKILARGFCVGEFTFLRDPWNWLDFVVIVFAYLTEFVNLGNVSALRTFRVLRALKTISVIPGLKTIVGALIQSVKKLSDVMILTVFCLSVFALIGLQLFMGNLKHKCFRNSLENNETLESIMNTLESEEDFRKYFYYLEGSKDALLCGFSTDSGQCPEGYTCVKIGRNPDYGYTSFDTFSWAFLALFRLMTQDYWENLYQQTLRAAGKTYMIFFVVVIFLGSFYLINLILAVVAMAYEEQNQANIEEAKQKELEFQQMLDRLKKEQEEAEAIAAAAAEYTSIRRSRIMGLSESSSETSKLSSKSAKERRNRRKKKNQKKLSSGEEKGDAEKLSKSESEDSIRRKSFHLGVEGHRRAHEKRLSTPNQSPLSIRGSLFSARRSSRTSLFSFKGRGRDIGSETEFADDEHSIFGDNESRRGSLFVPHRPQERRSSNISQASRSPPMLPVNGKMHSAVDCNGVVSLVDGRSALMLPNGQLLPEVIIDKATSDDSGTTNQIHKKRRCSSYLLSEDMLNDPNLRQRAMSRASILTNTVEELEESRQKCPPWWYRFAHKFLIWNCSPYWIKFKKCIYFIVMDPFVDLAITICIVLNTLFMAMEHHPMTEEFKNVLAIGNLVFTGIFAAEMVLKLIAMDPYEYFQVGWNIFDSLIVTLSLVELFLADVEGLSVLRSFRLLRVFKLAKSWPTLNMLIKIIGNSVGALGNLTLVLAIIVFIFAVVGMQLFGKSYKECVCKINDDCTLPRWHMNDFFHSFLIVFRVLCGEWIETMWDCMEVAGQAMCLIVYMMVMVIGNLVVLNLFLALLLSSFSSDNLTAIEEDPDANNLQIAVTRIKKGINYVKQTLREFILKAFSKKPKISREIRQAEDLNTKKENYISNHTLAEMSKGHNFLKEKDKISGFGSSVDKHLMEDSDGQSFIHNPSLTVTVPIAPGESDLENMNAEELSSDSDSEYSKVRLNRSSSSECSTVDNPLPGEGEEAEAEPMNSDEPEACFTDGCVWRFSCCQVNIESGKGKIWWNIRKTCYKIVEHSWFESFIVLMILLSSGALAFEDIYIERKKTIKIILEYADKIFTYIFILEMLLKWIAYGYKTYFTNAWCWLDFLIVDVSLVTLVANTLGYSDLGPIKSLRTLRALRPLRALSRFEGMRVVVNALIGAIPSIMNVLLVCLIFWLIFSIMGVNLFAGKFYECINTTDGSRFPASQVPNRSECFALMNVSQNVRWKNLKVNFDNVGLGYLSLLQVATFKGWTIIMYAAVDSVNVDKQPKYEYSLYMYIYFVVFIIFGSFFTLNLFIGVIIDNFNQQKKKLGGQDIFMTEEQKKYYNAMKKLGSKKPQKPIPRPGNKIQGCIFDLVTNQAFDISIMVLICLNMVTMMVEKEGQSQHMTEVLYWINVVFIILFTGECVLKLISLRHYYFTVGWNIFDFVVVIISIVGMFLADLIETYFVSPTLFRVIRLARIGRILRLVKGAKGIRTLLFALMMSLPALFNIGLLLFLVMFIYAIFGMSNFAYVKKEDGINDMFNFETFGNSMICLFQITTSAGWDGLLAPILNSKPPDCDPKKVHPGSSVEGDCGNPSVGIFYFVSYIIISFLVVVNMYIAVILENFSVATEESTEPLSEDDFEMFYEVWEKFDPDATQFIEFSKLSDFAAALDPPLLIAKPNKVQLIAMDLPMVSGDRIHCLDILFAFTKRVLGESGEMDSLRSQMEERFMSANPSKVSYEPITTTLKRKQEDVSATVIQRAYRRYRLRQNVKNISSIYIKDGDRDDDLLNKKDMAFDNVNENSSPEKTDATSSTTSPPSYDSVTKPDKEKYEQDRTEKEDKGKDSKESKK
Format: cell-based
Description: The ability of the compounds of formula (I) to block the Nav1.7 (or SCN9A) channel was measured using the assays described below.
Human Embryonic Kidney (HEK) cells were transfected with an hSCN9A construct using lipofectamine reagent (Invitrogen), using standard techniques. Cells stably expressing the hSCN9A constructs were identified by their resistance to G-418 (400 μg/ml). Clones were screened for expression using the whole-cell voltage-clamp technique.
HEK cells stably transfected with hSCN9A were maintained in DMEM medium supplemented with 10% heat-inactivated fetal bovine serum and 400 μg/ml G-418 in an incubator at 37° C. with a humidified atmosphere of 10% CO2. For HTS, cells were harvested from flasks by trypsinization and replated in an appropriate multi-well plate (typically 96 or 384 wells/plate) such that confluence would be achieved within 24 hours of plating. For electrophysiological studies, cells were removed from the culture flask by brief trypsinization and re-plated at low density onto glass cover slips. Cells were typically used for electrophysiological experiments within 24 to 72 hours after plating.
Cover slips containing HEK cells expressing hSCN9A were placed in a bath on the stage of an inverted microscope and perfused (approximately 1 ml/minutes) with extracellular solution of the following composition: 138 mM NaCl, 2 mM CaCl2, 5.4 mM KCl, 1 mM MgCl2, 10 mM glucose, and 10 mM HEPES, pH 7.4, with NaOH. […] The osmolarity of the extracellular and intracellular solutions was 300 mOsm/kg and 295 mOsm/kg, respectively. All recordings were made at room temperature (22-24° C.) using AXOPATCH 200B amplifiers and PCLAMP software (Axon Instruments, Burlingame, Calif.).
HEK cells stably transfected with hSCN9A were viewed under Hoffman contrast optics and placed in front of an array of flow pipes emitting either control or compound-containing extracellular solutions. All compounds were dissolved in dimethyl sulfoxide to make 10 mM stock solutions, which were then diluted into extracellular solution to attain the final concentrations desired. […] The voltage-dependence of inactivation was determined by applying a series of depolarizing prepulses (8 sec long in 10 mV increments) from a negative holding potential. The voltage was then immediately stepped to 0 mV to assess the magnitude of the sodium current. Currents elicited at 0 mV were plotted as a function of prepulse potential to allow estimation of the voltage at which 50% of the channels were inactivated (midpoint of inactivation or V1/2). Compounds were tested for their ability to inhibit hSCN9A sodium channels by activating the channel with a 20 msec voltage step to 0 mV following an 8 second conditioning prepulse to the empirically determined V1/2. Compound effect (% inhibition) was determined by difference in current amplitude before and after application of test compounds. For ease of comparison, “estimated IC-50” (EIC50) values were calculated from single point electrophysiology data by the following equation, (tested concentration, uM)×(100-% inhibition/% inhibition). Inhibition values <20% and >80% were excluded from the calculation.
Electrophysiological assays were conducted with PatchXpress 7000 hardware and associated software (Molecular Devices Corp). All assay buffers and solutions were identical to those used in conventional whole-cell voltage clamp experiments described above. hSCN9A cells were grown as above to 50%-80% confluency and harvested by trypsinization. Trypsinized cells were washed and resuspended in extracellular buffer at a concentration of 1×10^6 cells/ml. The onboard liquid handling facility of the PatchXpress was used for dispensing cells and application of test compounds. Determination of the voltage midpoint of inactivation was as described for conventional whole-cell recordings. Cells were then voltage-clamped to the empirically determined V1/2 and current was activated by a 20 msec voltage step to 0 mV. […]
`O=C(NS(=O)(=O)C1CC1)c1ccc(Oc2ccc(Cl)c(C(F)(F)F)c2)cc1` [Example 1, 4-[4-Chloro-3-(trifluoromethyl)phenoxy]-N-(cyclopropylsulfonyl)benzamide] showed an IC50 of 810 nM.
Work on `CS(=O)(=O)NC(=O)c1cc(Cl)c(Oc2ccc(Cl)c(Cl)c2)cc1F` [Example 2, 5-Chloro-4-(3,4-dichlorophenoxy)-2-fluoro-N-(methylsulfonyl)benzamide] yielded an IC50 of 64 nM.
`CCc1cc(Cl)ccc1Oc1cc(F)c(C(=O)NS(C)(=O)=O)cc1F` [Example 3, 4-(4-Chloro-2-ethylphenoxy)-2,5-difluoro-N-(methylsulfonyl)benzamide] gave an IC50 of 1700 nM.
`CCc1cc(C(=O)NS(C)(=O)=O)ccc1Oc1ccc(Cl)c(Cl)c1` [Example 4, 4-(3,4-Dichlorophenoxy)-3-ethyl-N-(methylsulfonyl)benzamide] gave an IC50 of 250 nM.
`CS(=O)(=O)NC(=O)c1cc(Cl)c(Oc2ccc(OC(F)(F)F)c(Cl)c2)cc1F` [Example 7, 5-chloro-4-[3-chloro-4-(trifluoromethoxy)phenoxy]-2-fluoro-N-(methylsulfonyl)benzamide] showed an IC50 of 25 nM.
Molecule `Cc1cc(C(=O)NS(C)(=O)=O)c(F)cc1Oc1ccc(Cl)c(C(F)(F)F)c1` [Example 8, 4-[4-chloro-3-(trifluoromethyl)phenoxy]-2-fluoro-5-methyl-N-(methylsulfonyl)benzamide] has an IC50 of 35 nM.
`CS(=O)(=O)NC(=O)c1cc(Cl)c(Oc2ccc(C(F)(F)F)c(Cl)c2)cc1F` [Example 9, 5-chloro-4-(3-chloro-4-(trifluoromethyl)phenoxy)-2-fluoro-N-(methylsulfonyl)benzamide] gave an IC50 of 47 nM.
Molecule `COc1cc(C(=O)NS(C)(=O)=O)ccc1Oc1ccc(Cl)c(Cl)c1` [Example 10, 4-(3,4-dichlorophenoxy)-3-methoxy-N-(methylsulfonyl)benzamide] has an IC50 of 970 nM.
Molecule `CS(=O)(=O)NC(=O)c1cc(Cl)c(Oc2ccc(Cl)cc2OC(F)F)cc1F` [Example 11, 5-chloro-4-[4-chloro-2-(difluoromethoxy)phenoxy]-2-fluoro-N-(methylsulfonyl)benzamide] has an IC50 of 430 nM.
`CS(=O)(=O)NC(=O)c1cc(F)c(Oc2ccc(OC(F)F)c(Cl)c2)cc1F` [Example 13, 4-[3-chloro-4-(difluoromethoxy)phenoxy]-2,5-difluoro-N-(methylsulfonyl)benzamide] gave an IC50 of 2500 nM.
With `CS(=O)(=O)NC(=O)c1ccc(Oc2ccc(Cl)c(C(F)(F)F)c2)cc1F` [Example 14, 4-(4-chloro-3-(trifluoromethyl)phenoxy)-2-fluoro-N-(methylsulfonyl)benzamide] the IC50 was 850 nM.
Work on `CS(=O)(=O)NC(=O)c1ccc(Oc2ccc(Cl)c(C(F)(F)F)c2)cc1` [Example 15, 4-[4-chloro-3-(trifluoromethyl)phenoxy]-N-(methylsulfonyl)benzamide] yielded an IC50 of 930 nM.
For `CS(=O)(=O)NC(=O)c1cc(Cl)c(Oc2ccc(Cl)c(C(F)(F)F)c2)cc1F` [Example 16, 5-chloro-4-[4-chloro-3-(trifluoromethyl)phenoxy]-2-fluoro-N-(methylsulfonyl)benzamide], the IC50 was 40 nM.
`CS(=O)(=O)NC(=O)c1cc(Cl)c(Oc2ccc(Cl)c(OC(F)(F)F)c2)cc1F` [Example 17, 5-chloro-4-[4-chloro-3-(trifluoromethoxy)phenoxy]-2-fluoro-N-(methylsulfonyl)benzamide] gave an IC50 of 32 nM.
Work on `CCc1cc(F)ccc1Oc1cc(F)c(C(=O)NS(C)(=O)=O)cc1Cl` [Example 18, 5-chloro-4-(2-ethyl-4-fluorophenoxy)-2-fluoro-N-(methylsulfonyl)benzamide] yielded an IC50 of 370 nM.
`CCc1cc(F)ccc1Oc1ccc(C(=O)NS(C)(=O)=O)c(F)c1` [Example 19, 4-(2-ethyl-4-fluorophenoxy)-2-fluoro-N-(methylsulfonyl)benzamide] was tested, and the IC50 was greater than 1000 nM.
For `CCc1cc(F)ccc1Oc1ccc(C(=O)NS(C)(=O)=O)cc1F` [Example 20, 4-(2-ethyl-4-fluorophenoxy)-3-fluoro-N-(methylsulfonyl)benzamide], the IC50 was 5400 nM.
Work on `CS(=O)(=O)NC(=O)c1cc(F)c(Oc2ccc(Cl)c(Cl)c2)cc1F` [Example 21, 4-(3,4-dichlorophenoxy)-2,5-difluoro-N-(methylsulfonyl)benzamide] yielded an IC50 of 450 nM.
Molecule `CCc1cc(F)ccc1Oc1ccc(C(=O)NS(C)(=O)=O)cc1C#N` [Example 22, 3-cyano-4-(2-ethyl-4-fluorophenoxy)-N-(methylsulfonyl)benzamide] has an IC50 of 5200 nM.
Molecule `CCS(=O)(=O)NC(=O)c1ccc(Oc2ccc(Cl)cc2)cc1` [Example 23, 4-(4-chlorophenoxy)-N-(ethylsulfonyl)benzamide] has an IC50 of 3400 nM.
Work on `CS(=O)(=O)NC(=O)c1ccc(Oc2ccc(Cl)cc2)cc1` [Example 24, 4-(4-chlorophenoxy)-N-(methylsulfonyl)benzamide] yielded an IC50 of 5700 nM.
`CS(=O)(=O)NC(=O)c1ccc(Oc2ccc(C#N)c(C#N)c2)cc1` [Example 25, 4-(3,4-dicyanophenoxy)-N-(methylsulfonyl)benzamide] showed an IC50 greater than 10000 nM.
`O=C(NS(=O)(=O)C1CC1)c1ccc(Oc2ccc(Cl)cc2)cc1` [Example 26, 4-(4-chlorophenoxy)-N-(cyclopropylsulfonyl)benzamide] was tested, and the IC50 was 430 nM.
Molecule `CS(=O)(=O)NC(=O)c1ccc(Oc2ccc(Cl)c(Cl)c2)c(C(F)(F)F)c1` [Example 27, 4-(3,4-dichlorophenoxy)-N-(methylsulfonyl)-3-(trifluoromethyl)benzamide] has an IC50 of 190 nM.
Work on `CS(=O)(=O)NC(=O)c1ccc(Oc2ccc(Cl)c(Cl)c2)cc1F` [Example 28, 4-(3,4-dichlorophenoxy)-2-fluoro-N-(methylsulfonyl)benzamide] yielded an IC50 of 860 nM.
In the case of `CS(=O)(=O)NC(=O)c1ccc(Oc2ccc(Cl)c(Cl)c2)c(C#N)c1` [Example 29, 3-cyano-4-(3,4-dichlorophenoxy)-N-(methylsulfonyl)benzamide], the IC50 is reported as 950 nM.
For `CS(=O)(=O)NC(=O)c1ccc(Oc2cccc(OC(F)(F)F)c2)cc1` [Example 30, N-(methylsulfonyl)-4-[3-(trifluoromethoxy)phenoxy]benzamide], the IC50 was 760 nM.
In the case of `CS(=O)(=O)NC(=O)c1c(F)cc(Oc2ccc(Cl)c(C(F)(F)F)c2)cc1F` [Example 31, 4-(4-chloro-3-(trifluoromethyl)phenoxy)-2,6-difluoro-N-(methylsulfonyl)benzamide], the IC50 is reported as 5700 nM.
Molecule `CS(=O)(=O)NC(=O)c1c(F)cc(Oc2ccc(Cl)c(C(F)(F)F)c2)c(F)c1F` [Example 32, 4-(4-chloro-3-(trifluoromethyl)phenoxy)-2,3,6-trifluoro-N-(methylsulfonyl)benzamide] has an IC50 greater than 1000 nM.
Work on `CS(=O)(=O)NC(=O)c1cc(F)c(Oc2ccc(C(F)(F)F)c(Cl)c2)cc1F` [Example 33, 4-(3-chloro-4-(trifluoromethyl)phenoxy)-2,5-difluoro-N-(methylsulfonyl)benzamide] yielded an IC50 of 500 nM.
Work on `CS(=O)(=O)NC(=O)c1ccc(Oc2ccc(Cl)c(Cl)c2)c(F)c1` [Example 34, 4-(3,4-dichlorophenoxy)-3-fluoro-N-(methylsulfonyl)benzamide] yielded an IC50 of 1500 nM.
With `CCc1cc(F)ccc1Oc1ccc(C(=O)NS(C)(=O)=O)cc1` [Example 35, 4-(2-ethyl-4-fluorophenoxy)-N-(methylsulfonyl)benzamide] the IC50 was 11000 nM.
`CS(=O)(=O)NC(=O)c1ccc(Oc2ccc(Cl)cc2Cl)cc1` [Example 38, 4-(2,4-dichlorophenoxy)-N-(methylsulfonyl)benzamide] was tested, and the IC50 was greater than 10000 nM.
Work on `COc1cc(Oc2ccc(Cl)cc2OC(F)(F)F)ccc1C(=O)NS(C)(=O)=O` [Example 39, 4-[4-chloro-2-(trifluoromethoxy)phenoxy]-2-methoxy-N-(methylsulfonyl)benzamide] yielded an IC50 of 9300 nM.
`COc1cc(Cl)ccc1Oc1ccc(C(=O)NS(C)(=O)=O)c(OC)c1` [Example 40, 4-(4-chloro-2-methoxyphenoxy)-2-methoxy-N-(methylsulfonyl)benzamide] showed an IC50 of 25000 nM.
